# Data: EP4793274A1, “SALT AND CRYSTAL FORM OF KIF18A INHIBITOR COMPOUND, PREPARATION METHOD THEREFOR AND USE THEREOF” (Hubei Bio-Pharmaceutical Industrial Technological Institute …, priority 2023, dated 2025)
# Tests used:
# [1] = Solid state stability (XRPD and HPLC purity); assay type: physicochemical
# From the text: 167-171. […] Table C-3. Summary of solid state stability evaluation
# [2] = Dynamic solubility at 37 °C in H2O, SGF, FaSSIF and FeSSIF (HPLC concentration, pH of filtrate, XRPD of residual solid); assay type: physicochemical; conditions: listed as Crystal form B of p-toluenesulfonate; for S: solubility: feeding concentration 10 mg/mL; for FC: crystal form change: XRPD of residual solid; for pH: pH of filtrate
# Experimental: 0.82 mL of glacial acetic acid and 1.18 g of NaCl were added to a 100 mL volumetric flask and completely dissolved by addition of purified water.
# The solubility of each sample in H2O, SGF, FaSSIF, and FeSSIF was determined at different time points (1 h, 2 h, 4 h, and 24 h). […] 137-156. […] Table C-2. Summary of dynamic solubility test results at 37 °C
# [3] = Hygroscopicity by dynamic vapor sorption (DVS); assay type: physicochemical; conditions: 25 °C/80% RH
# Experimental: Dynamic vapor sorption (DVS) curves were acquired on a DVS IntrInsic from Surface Measurement Systems (SMS). The relative humidity at 25 °C was corrected with the deliquescence points of LiCl, Mg(NO3)2, and KCl. Table A-5. DVS test parameters
# The percentage changes in mass of the samples when the humidity changed (0% RH to 95% RH) at a constant temperature of 25 °C were collected. 157-166.
# [4] = Solubility at room temperature in water, SGF and FaSSIF (HPLC concentration, pH of filtrate, XRPD of residual solid); conditions: listed as Crystal form B of p-toluenesulfonate; for S: solubility: feeding concentration 1 mg/mL; for pH: pH of filtrate
# Experimental: 100 mg of NaCl and 50 mg of Triton X-100 were weighed into a 50 mL volumetric flask and then completely dissolved by addition of purified water. 816 µL of 1 M hydrochloric acid was added, and the pH was adjusted to 1.8 with 1 M hydrochloric acid or 1 M NaOH solution. The mixed solution was brought to the volume by addition of purified water.
# 340 mg of anhydrous NaH2PO4 and 620 mg of NaCl were weighed into a 100 mL volumetric flask, and then completely dissolved by addition of purified water. 55.44 µL of a 50% NaOH solution was then added, and the pH was adjusted to 6.5 with 1 M hydrochloric acid or 1 M NaOH solution. The mixed solution was brought to the volume by addition of purified water. Subsequently, 110 mg of SIF powder was weighed into a 50 mL volumetric flask and completely dissolved in the solution described above, and the mixed solution was brought to the volume.
# Solids at a feeding concentration of 1 mg/mL (calculated based on free crystal form) were rotationally mixed with corresponding vehicles at room temperature. […] After sampling at each time point, the samples were centrifuged (at 10000 rpm) and filtered (through a 0.22 µm PTFE filter head), the HPLC concentrations and pH values of the filtrates were determined, and the centrifuged solid samples were subjected to XRPD analysis.
# [5] = 80 °C/sealed, 1 day, listed as Crystal form B of p-toluenesulfonate
structure (smiles),measurement,setting,value
Cc1cc(-c2cnn(-c3ccc(NS(=O)(=O)CCO)cc3N3CCC4(CC3)CC4)c2)nc(N2CCC(F)(F)CC2)n1 [crystal form B of the p-toluenesulfonate],HPLC results Relative to starting (%),"[1]; 25 °C/60% RH/open, 1 week",100.0%
same,HPLC results Purity (area%),"[1]; 25 °C/60% RH/open, 1 week, listed as Crystal form B of p-toluenesulfonate",98.27 area%
same,HPLC results Relative to starting (%),"[1]; 40 °C/75% RH/open, 1 week",100.0%
same,HPLC results Purity (area%),"[1]; 40 °C/75% RH/open, 1 week, listed as Crystal form B of p-toluenesulfonate",98.25 area%
same,HPLC results Purity (area%),[1]; [5],98.28 area%
same,HPLC results Relative to starting (%),[1]; [5],100.0%
same,HPLC results Purity (area%),"[1]; Starting, listed as Crystal form B of p-toluenesulfonate",98.28 area%
same,Crystal form,"[1]; XRPD after 25 °C/60% RH/open, 1 week, listed as Crystal form B of p-toluenesulfonate",Crystal form B of p-toluenesulfonate
same,Crystal form,"[1]; XRPD after 40 °C/75% RH/open, 1 week, listed as Crystal form B of p-toluenesulfonate",Crystal form B of p-toluenesulfonate
same,Crystal form,"[1]; XRPD after 80 °C/sealed, 1 day, listed as Crystal form B of p-toluenesulfonate",Crystal form B of p-toluenesulfonate
same,S: solubility,"[2]; FaSSIF, 1 h, 60 min",61.4 µg/mL
same,S: solubility,"[2]; FaSSIF, 2 h, 120 min",51.7 µg/mL
same,S: solubility,"[2]; FaSSIF, 4 h, 240 min",22.2 µg/mL
same,S: solubility,"[2]; FaSSIF, 24 h, 1440 min",16.3 µg/mL
same,S: solubility,"[2]; FeSSIF, 1 h, 60 min",182.8 µg/mL
same,S: solubility,"[2]; FeSSIF, 2 h, 120 min",166.5 µg/mL
same,S: solubility,"[2]; FeSSIF, 4 h, 240 min",159.9 µg/mL
same,S: solubility,"[2]; FeSSIF, 24 h, 1440 min",81.4 µg/mL
same,S: solubility,"[2]; H2O, 1 h, 60 min",2.7 µg/mL
same,S: solubility,"[2]; H2O, 2 h, 120 min",2.5 µg/mL
same,S: solubility,"[2]; H2O, 4 h, 240 min",1.9 µg/mL
same,S: solubility,"[2]; H2O, 24 h, 1440 min",1.5 µg/mL
same,S: solubility,"[2]; SGF, 1 h, 60 min",56.8 µg/mL
same,S: solubility,"[2]; SGF, 2 h, 120 min",45.6 µg/mL
same,S: solubility,"[2]; SGF, 4 h, 240 min",23.3 µg/mL
same,S: solubility,"[2]; SGF, 24 h, 1440 min",18.1 µg/mL
same,FC: crystal form change,"[2]; FaSSIF, 1 h",Yes
same,FC: crystal form change,"[2]; FaSSIF, 2 h",Yes
same,FC: crystal form change,"[2]; FaSSIF, 4 h",Yes
same,FC: crystal form change,"[2]; FaSSIF, 24 h",Yes
same,FC: crystal form change,"[2]; FeSSIF, 1 h",Yes
same,FC: crystal form change,"[2]; FeSSIF, 2 h",Yes
same,FC: crystal form change,"[2]; FeSSIF, 4 h",Yes
same,FC: crystal form change,"[2]; FeSSIF, 24 h",Yes
same,FC: crystal form change,"[2]; H2O, 1 h",Yes
same,FC: crystal form change,"[2]; H2O, 2 h",Yes
same,FC: crystal form change,"[2]; H2O, 4 h",Yes
same,FC: crystal form change,"[2]; H2O, 24 h",Yes
same,FC: crystal form change,"[2]; SGF, 1 h",Yes
same,FC: crystal form change,"[2]; SGF, 2 h",Yes
same,FC: crystal form change,"[2]; SGF, 4 h",Yes
same,FC: crystal form change,"[2]; SGF, 24 h",Yes
same,pH,"[2]; FaSSIF, 1 h",2.92
same,pH,"[2]; FaSSIF, 2 h",2.84
same,pH,"[2]; FaSSIF, 4 h",2.74
same,pH,"[2]; FaSSIF, 24 h",2.68
same,pH,"[2]; FeSSIF, 1 h",4.68
same,pH,"[2]; FeSSIF, 2 h",4.66
same,pH,"[2]; FeSSIF, 4 h",4.68
same,pH,"[2]; FeSSIF, 24 h",4.74
same,pH,"[2]; H2O, 1 h",2.17
same,pH,"[2]; H2O, 2 h",2.17
same,pH,"[2]; H2O, 4 h",2.09
same,pH,"[2]; H2O, 24 h",1.95
same,pH,"[2]; SGF, 1 h",1.64
same,pH,"[2]; SGF, 2 h",1.63
same,pH,"[2]; SGF, 4 h",1.60
same,pH,"[2]; SGF, 24 h",1.59
same,vapor sorption values,[3],0.171%
same,S: solubility,"[4]; FaSSIF, 2 h, 120 min",85.8 µg/mL
same,S: solubility,"[4]; FaSSIF, 24 h, 1440 min",37.8 µg/mL
same,S: solubility,"[4]; H2O, 24 h, 1440 min",0.1 µg/mL
same,S: solubility,"[4]; SGF, 2 h, 120 min",41.3 µg/mL
same,S: solubility,"[4]; SGF, 24 h, 1440 min",19.7 µg/mL
same,pH,"[4]; FaSSIF, 2 h",6.5
same,pH,"[4]; FaSSIF, 24 h",6.4
same,pH,"[4]; H2O, 2 h",3.4
same,pH,"[4]; H2O, 24 h",2.8
same,pH,"[4]; SGF, 2 h",1.9
same,pH,"[4]; SGF, 24 h",1.8
